Measured values as given in publication PMC12387680, “Mohangic Acid H and Mohangiol: New p-Aminoacetophenone Derivatives from a Mudflat-Derived Streptomyces sp” (Marine Drugs, 2025).
Like-named read-outs stand apart in the source and are kept apart here.

Assays:
isocitrate lyase (ICL) = molecular target: T1, isocitrate lyase (ICL) (Candida albicans, UniProt Q9P8Q7); assay: biochemical
T1 construct: gene ICL1; recombinant ICL

E. faecalis = test system: T2, E. faecalis; assay: microbe, parasite or virus in culture; design: broth microdilution antibacterial MIC, growth inhibition; conditions: Enterococcus faecalis, 24 h
T2 construct: ATCC 19433
Method: (§1) Three species of Gram-positive bacteria (Staphylococcus aureus ATCC 25923, Enterococcus faecalis ATCC 19433, and Enterococcus faecium ATCC 19434) and three species of Gram-negative bacteria (Klebsiella pneumoniae ATCC 10031, Salmonella enterica ATCC 14028, and Escherichia coli ATCC 25922) as human pathogens were selected as test strains and prepared for the antibacterial activity assays. The test bacterial strains were cultured overnight in Mueller–Hinton broth (MHB) at 37 °C for human pathogens and in tryptic soy broth (TSB) at 28 °C for B. thuringiensis. The grown strains were harvested by using a centrifuge and washed twice with sterilized water. Ampicillin and tetracycline were used as positive controls, and dimethyl sulfoxide (DMSO) was used as a negative control. Each compound, including 1 and 2, was dissolved in DMSO and diluted with MHB or TSB to prepare serial two-fold dilutions (from 128 µg/mL to 0.015 µg/mL). For the antibacterial activity assay, 10 µL of suspensions containing 1 × 10^6 colony forming units (CFU)/mL of the test bacteria and 190 µL of MHB or TSB, which included the positive control compounds or test compounds, were added into each well of a 96-well plate (final concentration of test bacteria was 5 × 10^4 CFU/mL). Then, the plate was incubated at 37 °C or 28 °C for 24 h. […] The biological activities of mohangic acid H (1) and mohangiol (2) were evaluated in multiple ways. 1 and 2 were evaluated for inhibitory activities against pathogenic bacteria (Staphylococcus aureus ATCC 25923, Enterococcus faecalis ATCC 19433, Enterococcus faecium ATCC 19434, Salmonella enterica ATCC 14028, Escherichia coli ATCC 25922, Klebsiella pneumoniae ATCC 10031) and fungi (Candida albicans ATCC 10231, Aspergillus fumigatus HIC 6094, Trichophyton rubrum NBRC 9185, Trichophyton mentagrophytes IFM 40996) in broth microdilution MIC assays.

E. coli = test system: T3, E. coli; assay: microbe, parasite or virus in culture; design: broth microdilution antibacterial MIC, growth inhibition; conditions: Escherichia coli, 24 h
T3 construct: ATCC 25922
Method: as §1

K. pneumonia = test system: T4, K. pneumonia; assay: microbe, parasite or virus in culture; design: broth microdilution antibacterial MIC, growth inhibition; conditions: Klebsiella pneumoniae, 24 h
T4 construct: ATCC 10031
Method: as §1

E. faecium = test system: T5, E. faecium; assay: microbe, parasite or virus in culture; design: broth microdilution antibacterial MIC, growth inhibition; conditions: Enterococcus faecium, 24 h
T5 construct: ATCC 19434
Method: as §1

S. enterica = test system: T6, S. enterica; assay: microbe, parasite or virus in culture; design: broth microdilution antibacterial MIC, growth inhibition; conditions: Salmonella enterica, 24 h
T6 construct: ATCC 14028
Method: as §1

S. aureus = test system: T7, S. aureus; assay: microbe, parasite or virus in culture; design: broth microdilution antibacterial MIC, growth inhibition; conditions: Staphylococcus aureus, 24 h
T7 construct: ATCC 25923
Method: as §1

T. rubrum = test system: T8, T. rubrum; assay: microbe, parasite or virus in culture; design: broth microdilution antifungal MIC in RPMI 1640, growth inhibition; conditions: Trichophyton rubrum, 96 h
T8 construct: NBRC 9185
Method: (§2) Potato dextrose agar (PDA) was used to cultivate Candida albicans ATCC 10231. After incubation for 48 h at 28 °C, the yeast cells were harvested by centrifugation and washed twice with sterile distilled water. Aspergillus fumigatus HIC 6094, Trichophyton rubrum NBRC 9185, and Trichophyton mentagrophytes IFM 40,996 were also plated on PDA and incubated for 2 weeks at 28 °C. Spores were harvested and washed twice with sterile distilled water. Stock solutions of 1 and 2 were prepared in DMSO. Each stock solution was diluted with RPMI 1640 broth (Difco, Livonia, MI, USA) to give serial twofold dilutions in the range of 0.06–128 µg/mL. The final DMSO concentration was maintained at 1% by adding DMSO to the broth. Aliquots (10 µL) of the RPMI 1640 broth containing approximately 10^4 cells/mL were mixed with the test compound solutions in each well of a 96-well plate. The plates were incubated for 24 h (for C. albicans), 48 h (for A. fumigatus), and 96 h (for T. rubrum and T. mentagrophytes) at 37 °C. A culture with DMSO (1%) was used as a solvent control, and a culture supplemented with amphotericin B was used as a positive control. The biological activities of mohangic acid H (1) and mohangiol (2) were evaluated in multiple ways. 1 and 2 were evaluated for inhibitory activities against pathogenic bacteria (Staphylococcus aureus ATCC 25923, Enterococcus faecalis ATCC 19433, Enterococcus faecium ATCC 19434, Salmonella enterica ATCC 14028, Escherichia coli ATCC 25922, Klebsiella pneumoniae ATCC 10031) and fungi (Candida albicans ATCC 10231, Aspergillus fumigatus HIC 6094, Trichophyton rubrum NBRC 9185, Trichophyton mentagrophytes IFM 40996) in broth microdilution MIC assays.

A. fumigatus = test system: T9, A. fumigatus; assay: microbe, parasite or virus in culture; design: broth microdilution antifungal MIC in RPMI 1640, growth inhibition; conditions: Aspergillus fumigatus, 48 h
T9 construct: HIC 6094
Method: as §2

T. mentagrophytes = test system: T10, T. mentagrophytes; assay: microbe, parasite or virus in culture; design: broth microdilution antifungal MIC in RPMI 1640, growth inhibition; conditions: Trichophyton mentagrophytes, 96 h
T10 construct: IFM 40996
Method: as §2

C. albicans = test system: T11, C. albicans; assay: microbe, parasite or virus in culture; design: broth microdilution antifungal MIC in RPMI 1640, growth inhibition; conditions: Candida albicans, 24 h
T11 construct: ATCC 10231
Method: as §2

[1] = read-out: IC50 (μg/mL) (converted)

T1 sequence (Q9P8Q7 whole entry): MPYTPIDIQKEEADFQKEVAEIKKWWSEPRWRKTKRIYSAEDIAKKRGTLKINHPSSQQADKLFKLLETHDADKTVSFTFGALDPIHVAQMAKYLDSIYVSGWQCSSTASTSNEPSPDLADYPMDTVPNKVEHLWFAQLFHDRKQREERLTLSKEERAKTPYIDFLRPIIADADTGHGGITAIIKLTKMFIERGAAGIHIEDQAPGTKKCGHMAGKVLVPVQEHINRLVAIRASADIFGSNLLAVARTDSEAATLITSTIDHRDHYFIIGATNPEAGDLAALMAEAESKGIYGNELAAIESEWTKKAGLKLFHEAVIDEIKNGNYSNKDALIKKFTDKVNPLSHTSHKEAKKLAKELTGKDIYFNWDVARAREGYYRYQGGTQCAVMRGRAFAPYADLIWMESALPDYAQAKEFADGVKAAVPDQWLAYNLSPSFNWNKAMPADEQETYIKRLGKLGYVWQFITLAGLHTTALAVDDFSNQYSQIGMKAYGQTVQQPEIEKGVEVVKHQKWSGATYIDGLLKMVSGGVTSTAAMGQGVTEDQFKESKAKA

Compound | IC50 (isocitrate lyase (ICL)) [µM] | IC50 (isocitrate lyase (ICL); [1]) [µM] | MIC (E. faecalis) [µM] | MIC (E. coli) [µM] | MIC (K. pneumonia) [µM] | MIC (E. faecium) [µM] | MIC (S. enterica) [µM] | MIC (S. aureus) [µM] | MIC (T. rubrum) [µM] | MIC (A. fumigatus) [µM] | MIC (T. mentagrophytes) [µM] | MIC (C. albicans) [µM]
O=C(O)CC[N+](=O)[O-] [3-nitropropionate, reference compound] | 126 | – | – | – | – | – | – | – | – | – | – | –
CC(=O)Nc1ccc(C(=O)C[C@@H](O)[C@H](C)C[C@@H](C)[C@H](O)[C@H](C)/C=C/C=C/C(=O)O)cc1 [compound 1, Mohangic acid H] | – | 49.5 | > 128 | > 128 | > 128 | > 128 | > 128 | > 128 | > 128 | > 128 | > 128 | > 128
C[C@H](O)CC/C=C/C=C/[C@@H](C)[C@@H](O)[C@H](C)C[C@@H](C)[C@H](O)CC(=O)c1ccc(N)cc1 [compound 2, Mohangiol] | – | 50.6 | > 128 | > 128 | > 128 | > 128 | > 128 | > 128 | > 128 | > 128 | > 128 | > 128
